What all share (format): cell-based, human
The test system of test [1] is collagen type I mRNA. The experiment in a line: Collagen type I mRNA level by one-step RT-PCR in normal skin fibroblasts. Particulars: 24 h; 50 nM and 1 μM aldosterone, alone or with 2 μM spironolactone. The procedure: (§1) Fibroblasts were cultured to confluency in medium with 2% FBS and then in serum-free medium for 24 hours. The medium was changed again and cells were incubated for the next 24 hours in the presence and absence of in the presence of 50 nM and 1 μM aldosterone, and 2 μM spironolactone, alone or in combinations, as described in figure legend. At the end of the incubation period total RNA was extracted using the RNeasy Mini Kit, according to manufacturer's instructions. Steady-state levels of elastin mRNA were then analyzed by One-Step RT-PCR analysis. Briefly, 1 μg of total RNA was added to each one step RT-PCR (Qiagen One-Step RT-PCR Kit), and reactions were set up according to manufacturer's instructions in a total volume of 25 μl. The reverse transcription step was performed for elastin, and GAPDH reactions at 50° C. for 30 minutes, followed by 15 minutes at 95° C. The elastin PCR reaction (sense primer: [NT] ID NO: 1), antisense primer: [NT] ID NO: 2); designed to produce a 255 bp product) was performed under the following conditions: 25 cycles at 94° C. denaturation for 20 s, 63° C. annealing for 20 s, 72° C. extension for 1 min; 1 cycle at 72° C. final extension for 10 min. The collagen Type I PCR reaction (sense [NT] ID NO: 3), antisense primer: [NT] […]

In test [2] the test system is elastin mRNA. Put plainly: Elastin mRNA level by one-step RT-PCR in normal skin fibroblasts. Particulars: 24 h; 50 nM and 1 μM aldosterone, alone or with 2 μM spironolactone. The method, then:
as §1

Test [3] deals with skin biopsy explants derived from normal abdominal skin. Put plainly: Organ culture of normal skin explants, Movat's pentachrome stain. Particulars: 10 days, 50 nM aldosterone alone or with 2 μM spironolactone. The procedure:
In order to further test whether aldosterone and spironolactone would penetrate into skin tissue and affect elastogenesis, fragments of normal skin, stretch-marked skin and dermal scars were tested in organ culture system. Skin fragments were cut into multiple 1 mm^2 pieces and placed on top of metal grids immersed in culture medium containing 5% FBS and maintained for 10 days in the presence and absence of and then cultured for 7 days in the presence of 50 nM aldosterone, and 2 μM spironolactone, alone or in combinations, as described in figure legends. The media were changed every second day. All organ cultures were fixed in 1% buffered formalin and their transversal serial histological sections were stained with Movat's pentachrome as previously described in Hinek et al. “Proteolytic digest derived from bovine Ligamentum Nuchae stimulates deposition of new elastin-enriched matrix in cultures and transplants of human dermal fibroblasts” J Dermatol Sci. September 2005; 39(3):155-66 hereby incorporated by reference in it's entirety. Morphometric analysis was performed as described above. In each analyzed group (three explants from each patient) low-power fields (1 mm^2) of 20 serial sections stained with Movat's pentachrome were analyzed and all structures stained black (elastic fibers) were counted.

Test [4] concerns skin biopsy explants derived from abdominal dermal scar. Put plainly: Organ culture of dermal scar explants, Movat's pentachrome stain. The following applies: 50 nM aldosterone alone or with 2 μM spironolactone. The procedure:
In order to further test whether aldosterone and spironolactone would penetrate into skin tissue and affect elastogenesis, fragments of normal skin, stretch-marked skin and dermal scars were tested in organ culture system. Skin fragments were cut into multiple 1 mm^2 pieces and placed on top of metal grids immersed in culture medium containing 5% FBS and maintained for 10 days in the presence and absence of and then cultured for 7 days in the presence of 50 nM aldosterone, and 2 μM spironolactone, alone or in combinations, as described in figure legends. The media were changed every second day.
All organ cultures were fixed in 1% buffered formalin and their transversal serial histological sections were stained with Movat's pentachrome as previously described in Hinek et al. “Proteolytic digest derived from bovine Ligamentum Nuchae stimulates deposition of new elastin-enriched matrix in cultures and transplants of human dermal fibroblasts” J Dermatol Sci. September 2005; 39(3):155-66 hereby incorporated by reference in it's entirety. Morphometric analysis was performed as described above. In each analyzed group (three explants from each patient) low-power fields (1 mm^2) of 20 serial sections stained with Movat's pentachrome were analyzed and all structures stained black (elastic fibers) were counted.

Molecules are shown by their SMILES.

Regarding `C[C@]12CCC(=O)C=C1CC[C@@H]1[C@@H]2[C@@H](O)C[C@]2(C=O)[C@@H](C(=O)CO)CC[C@@H]12` [aldosterone], in test [1], the “collagen type I mRNA (relative to GAPDH mRNA)” value is given as “net increase of collagen type I mRNA”. Besides, the “elastin mRNA (relative to GAPDH mRNA)” value in test [2] is on record as “increases in an aldosterone concentration dependent manner”. In addition, in test [3], the “elastic fibers / deposition of elastin (Movat's pentachrome)” value was “thicker and longer elastic fibers”. Besides, in test [4] (FIG. 11, vs untreated control), the “deposition of collagen (yellow, Movat's pentachrome)” value is listed as “increases in deposition” and the “deposition of elastin (black, Movat's pentachrome)” value was “increases in deposition”. Further, the “elastic fibers (Movat's pentachrome)” value in test [4] (superficial and deep portion of scar, 10 days) is on record as “numerous elastic fibers”.

Values taken from US9492462B2, “Composition for elastin production” (HUMAN MATRIX SCIENCES, LLC, priority 2007, dated 2016).
